Data: patent US6699969B1, “Assays for the detection of microtubule depolymerization inhibitors” (The Regents of the University of California, priority 1998, dated 2004)

System: MSU1.1 human fibroblasts
Assay: Centrosome targeting of GFP fusion after transient transfection
Type: cell-based
Settings: 2-4 hr after transfection
Procedure: To allow transient expression of a human p80 WD40-GFP fusion protein in HeLa cells, a DNA fragment containing amino acids 1-263 of human p80 katanin was generated by PCR amplification, placing a BamHl site and a Kozak consensus at the predicted translation start and an EcoRI site after the codon for a.a. 263. This BamH1-EcoR1 fragment was ligated into the GFP fusion vector pEGFP-N1 (Clontech).
Both MSU1.1 and Hela cells were grown on 18 mm glass coverslips in Optimem medium (Life Technologies) supplemented with 10% fetal bovine serum, penicillin and streptomycin. Plasmids were transfected using Superfect Reagent (Qiagen) for 2 hr after which coverslips were washed with PBS and placed in fresh culture medium at 37° C. with 5% CO2 for 1-24 hr.
For imaging of GFP-fluorescence and immunofluorescence with the human p80 katanin antibody or with the γ-tubulin antibody, monoclonal GTU88 (Sigma Chemical), cells on coverslips were fixed either in −20° C. methanol or in 0.5×PBS, 3.7% formaldehyde, 75% methanol at 22° C. for 10 min followed by rehydration in TBST. Antibody labelling was carried out in TBST containing 4% BSA. Images were captured with a Nikon Microphot SA microscope, 100× Plan Fluor 1.3 objective, Photometrics Quantix camera and IP Lab Spectrum software (Scanalytics).

## p80 WD40-GFP: six WD40 repeats of human p80 katanin (a.a. 1-263) appended to N-terminus of green fluorescent protein
  localization of green fluorescence: co-localized with γ-tubulin staining
